From PubChem BioAssay (NCI)
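Tested at 5 concentrations; 48 h exposure; 96-well plates; endpoints linearly interpolated, else capped at highest concentration. At the TGI there is no net growth.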

Legend:
Assay in all cases: NCI-60 cell line screen, 48 h
786-0 renal = test system: 786-0 renal
A498 renal = test system: A498 renal
A549 NSCLC = test system: A549 NSCLC
ACHN renal = test system: ACHN renal
BT-549 breast = test system: BT-549 breast
CAKI-1 renal = test system: CAKI-1 renal
CCRF-CEM leukemia = test system: CCRF-CEM leukemia
COLO 205 colon = test system: COLO 205 colon
DU-145 prostate = test system: DU-145 prostate
EKVX NSCLC = test system: EKVX NSCLC
HCT-116 colon = test system: HCT-116 colon
HCT-15 colon = test system: HCT-15 colon
HL-60(TB) leukemia = test system: HL-60(TB) leukemia
HOP-62 NSCLC = test system: HOP-62 NSCLC
HOP-92 NSCLC = test system: HOP-92 NSCLC
HS 578T breast = test system: HS 578T breast
HT29 colon = test system: HT29 colon
IGROV1 ovarian = test system: IGROV1 ovarian
K-562 leukemia = test system: K-562 leukemia
KM12 colon = test system: KM12 colon
LOX IMVI melanoma = test system: LOX IMVI melanoma
M14 melanoma = test system: M14 melanoma
MALME-3M melanoma = test system: MALME-3M melanoma
MCF7 breast = test system: MCF7 breast
MDA-MB-231 breast = test system: MDA-MB-231 breast
MDA-MB-435 = test system: MDA-MB-435
MDA-N = test system: MDA-N
MOLT-4 leukemia = test system: MOLT-4 leukemia
NCI-H226 lung = test system: NCI-H226 lung
NCI-H23 lung = test system: NCI-H23 lung
NCI-H460 lung = test system: NCI-H460 lung
NCI-H522 lung = test system: NCI-H522 lung
NCI/ADR-RES ovarian = test system: NCI/ADR-RES ovarian
OVCAR-3 ovarian = test system: OVCAR-3 ovarian
OVCAR-4 ovarian = test system: OVCAR-4 ovarian
OVCAR-5 ovarian = test system: OVCAR-5 ovarian
OVCAR-8 ovarian = test system: OVCAR-8 ovarian
PC-3 prostate = test system: PC-3 prostate
RPMI-8226 leukemia = test system: RPMI-8226 leukemia
RXF 393 renal = test system: RXF 393 renal
SF-268 CNS = test system: SF-268 CNS
SF-295 CNS = test system: SF-295 CNS
SF-539 CNS = test system: SF-539 CNS
SK-MEL-2 melanoma = test system: SK-MEL-2 melanoma
SK-MEL-28 melanoma = test system: SK-MEL-28 melanoma
SK-MEL-5 melanoma = test system: SK-MEL-5 melanoma
SK-OV-3 ovarian = test system: SK-OV-3 ovarian
SN12C renal = test system: SN12C renal
SNB-19 CNS = test system: SNB-19 CNS
SNB-75 CNS = test system: SNB-75 CNS
SR leukemia = test system: SR leukemia
SW-620 colon = test system: SW-620 colon
T-47D breast = test system: T-47D breast
TK-10 renal = test system: TK-10 renal
U251 CNS = test system: U251 CNS
UACC-257 melanoma = test system: UACC-257 melanoma
UACC-62 melanoma = test system: UACC-62 melanoma
UO-31 renal = test system: UO-31 renal

In the case of `CN(C)CCCN1c2ccccc2C(C)(C)c2ccccc21`, the TGI (786-0 renal) is reported as 27.7 µM, the TGI (A498 renal) is reported as 23 µM and the TGI (A549 NSCLC) is reported as 30.7 µM. The TGI (ACHN renal) was 28.6 µM, the TGI (BT-549 breast) was 28.1 µM and the TGI (CAKI-1 renal) was 25.5 µM. For the same compound, the TGI (CCRF-CEM leukemia) was 53.5 µM, the TGI (COLO 205 colon) was 27.8 µM and the TGI (DU-145 prostate) was 31.2 µM. The TGI (EKVX NSCLC) was 32.6 µM, the TGI (HCT-116 colon) was 27.9 µM and the TGI (HCT-15 colon) was 29.8 µM. The TGI (HL-60(TB) leukemia) was 33.6 µM, the TGI (HOP-62 NSCLC) was 31.5 µM and the TGI (HOP-92 NSCLC) was 31.6 µM. It also gave a TGI (HS 578T breast) of 43.3 µM, a TGI (HT29 colon) of 24 µM and a TGI (IGROV1 ovarian) of 31.7 µM. The TGI (K-562 leukemia) was 27.1 µM, the TGI (KM12 colon) was 28.3 µM and the TGI (LOX IMVI melanoma) was 28.4 µM. The TGI (M14 melanoma) was 28.8 µM, the TGI (MALME-3M melanoma) was 31 µM and the TGI (MCF7 breast) was 28 µM. The TGI (MDA-MB-231 breast) was 27.8 µM, the TGI (MDA-MB-435) was 27.4 µM and the TGI (MDA-N) was 27.6 µM. The TGI (MOLT-4 leukemia) was 26.6 µM, the TGI (NCI-H226 lung) was 29.7 µM and the TGI (NCI-H23 lung) was 30.4 µM. For the same compound, the TGI (NCI-H460 lung) was 26.4 µM, the TGI (NCI-H522 lung) was 28.6 µM and the TGI (NCI/ADR-RES ovarian) was 31.8 µM. The TGI (OVCAR-3 ovarian) was 28.9 µM, the TGI (OVCAR-4 ovarian) was 28.2 µM and the TGI (OVCAR-5 ovarian) was 27.2 µM. It also gave a TGI (OVCAR-8 ovarian) of 29.8 µM, a TGI (PC-3 prostate) of 26.6 µM and a TGI (RPMI-8226 leukemia) of 28.5 µM. It also gave a TGI (RXF 393 renal) of 26.8 µM, a TGI (SF-268 CNS) of 27.2 µM and a TGI (SF-295 CNS) of 32.9 µM. For the same compound, the TGI (SF-539 CNS) was 28.4 µM, the TGI (SK-MEL-2 melanoma) was 30.1 µM and the TGI (SK-MEL-28 melanoma) was 31.4 µM. It also gave a TGI (SK-MEL-5 melanoma) of 26.2 µM, a TGI (SK-OV-3 ovarian) of 29.1 µM and a TGI (SN12C renal) of 27.9 µM. It also gave a TGI (SNB-19 CNS) of 28.8 µM, a TGI (SNB-75 CNS) of 24.4 µM and a TGI (SR leukemia) of 27.1 µM. The TGI (SW-620 colon) was 52.4 µM, the TGI (T-47D breast) was 38.7 µM and the TGI (TK-10 renal) was 27.2 µM. The TGI (U251 CNS) was 24.9 µM, the TGI (UACC-257 melanoma) was 23.9 µM and the TGI (UACC-62 melanoma) was 25.8 µM. For the same compound, the TGI (UO-31 renal) was 27.4 µM.
